{"source": "paper PMC6212553", "about": "“Baicalein Enhances the Oral Bioavailability and Hepatoprotective Effects of Silybin Through the Inhibition of Efflux Transporters BCRP and MRP2” (Frontiers in Pharmacology, 2018)", "key": {"[1]": {"assay": "Bidirectional transport of silybin across Caco-2 cell monolayers", "assay_type": "in vitro ADME, Human", "settings": "human; Caco-2, silybin 2.5, 5 and 10 μM, with baicalein 5 μM", "experimental": "Human colon epithelial cell line (Caco-2) was purchased from American Type Culture Collection (Manassas, VA, United States) and frozen at -80°C. Wild type MDCK II, MDR1-MDCK II, BCRP-MDCK II, and MRP2-MDCK II cells were kindly supplied by the Netherlands Cancer Institute (Amsterdam, Netherlands). Transport study was carried out with Caco-2 cells, and MDCK II cells were transfected using a previously established method with slight modifications ([Yuan et al., 2017]). The Caco-2 cells were cultured at 37°C/5% CO2 in Dulbecco's modified Eagle's medium (DMEM) supplemented with 10% fetal bovine serum, 1% nonessential amino acids, and 1% penicillin-streptomycin. The Caco-2 cells were seeded onto polyester filter membranes in a 12-well Transwell® plate (Corning Costar Co., NY, United States) with 0.6 × 10^5 cells/cm^2. The monolayer cells were used for transport assays between 21 and 23 days. The MDCKII cells were seeded on transwell plates with a density of 2.0 × 10^5 cells/cm^2 and grown for 4-5 days to form a confluent monolayer. Bidirectional transport assays for Caco-2 and MDCK II cells were performed by adding silybin (10 μM) in assay buffer into either the apical (AP; A-to-B) or basolateral (BL; […] For inhibition studies, Caco-2 or MDCK II cell monolayers in both apical and basolateral chambers were preincubated with the inhibitor for 30 min. The fluorescence intensity of the sample collected from the AP or BL side was immediately detected in a 96-well black plate by the Microplate UV/VIS spectrophotometer (TECAN Infinite […], Männedorf, Switzerland). For liquid chromatography tandem-mass spectrometry (LC-MS/MS) analysis, the sample (100 μl) was mixed with methanol (50 μl) containing internal standard (25 ng/ml) and was stored at -80°C. The formula for calculating apparent permeability coefficient (Papp) values is as follows: (1) […] where dQ/dt (mM/s) represents the rate of permeation of the drug across the cells, C0 (mM) refers to the concentration in the donor compartment at time zero calculated from dosing solution, and A (cm^2) refers to the area of the cell monolayer. Papp (B-A) is the Papp value measured in the B to A direction, and Papp (A-B) is the Papp value measured in the A to B direction. The efflux ratio is given as ER = Papp (B to A)/Papp (A to B)."}, "[2]": {"test_system": "CCl4-induced liver injury model", "assay": "CCl4-induced acute liver injury in rats", "assay_type": "in vivo, SD rats", "design": "Nerosis (histologic score, liver H&E) / Haemorrhage (histologic score, liver H&E) / Inflammation (histologic score, liver H&E) / Steatosis (histologic score, liver H&E): scale not given here", "experimental": "Male SD rats were randomly divided into seven groups: […] (2) Group II, given blank vehicle p.o. for 7 days; (3) Group III, treatment with silybin (100 mg/kg bodyweight, p.o.) for 7 days; […] After 24 h of CCl4 treatment, all rats were sacrificed under ether anesthesia. Blood samples were collected from the abdominal aorta for biochemical estimations. The liver was immediately removed and weighed with a large portion of the liver frozen in liquid nitrogen. The pathological liver changes were examined by hematoxylin and eosin (H&E) staining, which was performed by a pathologist who was blinded to this study. The serum levels of ALT, AST, AKP, and SOD as well as the cytokines TNF- α, IL-6, and IL-1β were detected by the assay kit, according to the manufacturer’s instructions."}, "[3]": {"design": "method as in Wen et al., 2008", "settings": "after oral administration; ref Wen et al., 2008; cited from earlier work"}, "[4]": {"design": "method as in Pradhan and Girish, 2006", "settings": "doses <10 g/d; ref Pradhan and Girish, 2006; cited from earlier work"}, "[5]": {"settings": "100 mg/kg p.o. 7 days, single agent, CCl4 on day 7"}, "[6]": {"settings": "silybin 100 mg/kg for 7 consecutive days, P < 0.01"}}}
{"smiles": "COc1cc(C2Oc3cc([C@H]4Oc5cc(O)cc(O)c5C(=O)[C@@H]4O)ccc3OC2CO)ccc1O", "note": "(some centres unmarked) [silybin, Silybin]", "values": [{"measurement": "efflux ratio at 180 min", "setting": "[1]", "value": "~2"}, {"measurement": "Haemorrhage (histologic score, liver H&E)", "setting": "[2]; [5]", "value": "2.2±0.8"}, {"measurement": "Inflammation (histologic score, liver H&E)", "setting": "[2]; [5]", "value": "2.0±0.6"}, {"measurement": "Nerosis (histologic score, liver H&E)", "setting": "[2]; [5]", "value": "2.7±0.5"}, {"measurement": "Steatosis (histologic score, liver H&E)", "setting": "[2]; [5]", "value": "2.2±0.8"}, {"measurement": "CCl4-induced increase of liver weight and ratio of liver to body weight", "setting": "[2]; p.o. 7 days before CCl4, p < 0.01", "value": "abrogated"}, {"measurement": "CCl4-induced increase in serum IL-1β, IL-6, and TNF-α levels", "setting": "[2]; [6]", "value": "significantly prevented"}, {"measurement": "CCl4-induced increase in the serum activities of ALT, AST, and AKP", "setting": "[2]; [6]", "value": "significantly prevented"}, {"measurement": "glucuronide conjugated silybin", "setting": "[3]", "value": 55, "unit": "%"}, {"measurement": "sulfate conjugated silybin", "setting": "[3]", "value": 28, "unit": "%"}, {"measurement": "side effects", "setting": "[4]", "value": "no significant side effects"}]}
